System: 282377-053-R-J1-PDC complex spheroids, viability
Experiment: Anticancer human tumor 282377-053-R-J1-PDC patient-derived colon adenocarcinoma cell line growth inhibition [GQUAD]
Details: for IC50: curve of first compound; for viability, T/C: stronger effect = lower value
Outline: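 Viability of tumor cells grown as complex spheroids with endothelial and stromal cells, exposed to drug combinations. Top concentration at or near clinical Cmax (else 10 microM), diluted in half-log increments.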

[1] = second compound 0.0316 µM, first compound 0.0316 µM
[2] = second compound 0.0316 µM, first compound 0.1 µM
[3] = second compound 0.0316 µM, first compound 0.316 µM
[4] = second compound 0.0316 µM, first compound 1 µM
[5] = second compound 0.0316 µM, first compound 3.16 µM
[6] = second compound 0.0316 µM, first compound 10 µM
[7] = second compound 0.1 µM, first compound 0.0316 µM
[8] = second compound 0.1 µM, first compound 0.1 µM
[9] = second compound 0.1 µM, first compound 0.316 µM
[10] = second compound 0.1 µM, first compound 1 µM
[11] = second compound 0.1 µM, first compound 3.16 µM
[12] = second compound 0.1 µM, first compound 10 µM
[13] = second compound 0.316 µM, first compound 0.0316 µM
[14] = second compound 0.316 µM, first compound 0.1 µM
[15] = second compound 0.316 µM, first compound 0.316 µM
[16] = second compound 0.316 µM, first compound 1 µM
[17] = second compound 0.316 µM, first compound 3.16 µM
[18] = second compound 0.316 µM, first compound 10 µM
[19] = second compound 1 µM, first compound 0.0316 µM
[20] = second compound 1 µM, first compound 0.1 µM
[21] = second compound 1 µM, first compound 0.316 µM
[22] = second compound 1 µM, first compound 1 µM
[23] = second compound 1 µM, first compound 3.16 µM
[24] = second compound 1 µM, first compound 10 µM
[25] = second compound 3.16 µM, first compound 0.0316 µM
[26] = second compound 3.16 µM, first compound 0.1 µM
[27] = second compound 3.16 µM, first compound 0.316 µM
[28] = second compound 3.16 µM, first compound 1 µM
[29] = second compound 3.16 µM, first compound 3.16 µM
[30] = second compound 3.16 µM, first compound 10 µM
[31] = second compound 10 µM, first compound 0.0316 µM
[32] = second compound 10 µM, first compound 0.1 µM
[33] = second compound 10 µM, first compound 0.316 µM
[34] = second compound 10 µM, first compound 1 µM
[35] = second compound 10 µM, first compound 3.16 µM
[36] = second compound 10 µM, first compound 10 µM
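Also: spheroids exposed to compounds for 7 days before readout.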
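For viability, T/C in this document: percent of vehicle DMSO control viability with 100% = untreated-like growth.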

With `CC(C)n1c(=O)n(C)c2cnc3cc(F)c(-c4ccc(OCCCN5CCCCC5)nc4)cc3c21` + Cc1[nH]c2ccc(F)cc2c1-c1nc2c3cccnc3c3ncccc3c2[nH]1 the IC50 (second compound 0.0316 µM) was > 10 µM, the IC50 (second compound 0.1 µM) was > 10 µM and the IC50 (second compound 0.316 µM) was > 10 µM. The IC50 (second compound 1 µM) was > 10 µM, the IC50 (second compound 3.16 µM) was 6.16 µM and the IC50 (second compound 10 µM) was 0.0435 µM. The viability, T/C [1] was 123%, the viability, T/C [2] was 91.5% and the viability, T/C [3] was 123%. For the same compound, the viability, T/C [4] was 104%, the viability, T/C [5] was 101% and the viability, T/C [6] was 94.1%. For the same compound, the viability, T/C [7] was 101%, the viability, T/C [8] was 118% and the viability, T/C [9] was 94.2%. It also gave a viability, T/C [10] of 88.6%, a viability, T/C [11] of 118% and a viability, T/C [12] of 92.6%. For the same compound, the viability, T/C [13] was 132%, the viability, T/C [14] was 115% and the viability, T/C [15] was 100%. For the same compound, the viability, T/C [16] was 112%, the viability, T/C [17] was 108% and the viability, T/C [18] was 91.5%. It also gave a viability, T/C [19] of 106%, a viability, T/C [20] of 116% and a viability, T/C [21] of 107%. It also gave a viability, T/C [22] of 112%, a viability, T/C [23] of 98.4% and a viability, T/C [24] of 93%. The viability, T/C [25] was 89%, the viability, T/C [26] was 78.8% and the viability, T/C [27] was 86.7%. The viability, T/C [28] was 66.3%, the viability, T/C [29] was 73.6% and the viability, T/C [30] was 36.5%. For the same compound, the viability, T/C [31] was 53%, the viability, T/C [32] was 40.7% and the viability, T/C [33] was 44.3%. For the same compound, the viability, T/C [34] was 29.6%, the viability, T/C [35] was 23.9% and the viability, T/C [36] was 19%.
In the case of `Cc1cccc(N(C)C(=O)C2C(O)CCN2c2nc(C)cc(C(F)(F)F)c2C#N)c1` (stereo not drawn) + Cc1[nH]c2ccc(F)cc2c1-c1nc2c3cccnc3c3ncccc3c2[nH]1, the IC50 (second compound 0.0316 µM) is reported as > 10 µM, the IC50 (second compound 0.1 µM) is reported as > 10 µM and the IC50 (second compound 0.316 µM) is reported as > 10 µM. For the same compound, the IC50 (second compound 1 µM) was > 10 µM, the IC50 (second compound 3.16 µM) was > 10 µM and the IC50 (second compound 10 µM) was 0.567 µM. The viability, T/C [1] was 89.3%, the viability, T/C [2] was 94.1% and the viability, T/C [3] was 113%. It also gave a viability, T/C [4] of 95.9%, a viability, T/C [5] of 100% and a viability, T/C [6] of 76.2%. The viability, T/C [7] was 95.7%, the viability, T/C [8] was 91.3% and the viability, T/C [9] was 83.5%. The viability, T/C [10] was 109%, the viability, T/C [11] was 82.8% and the viability, T/C [12] was 94.6%. For the same compound, the viability, T/C [13] was 77.2%, the viability, T/C [14] was 100% and the viability, T/C [15] was 92.1%. The viability, T/C [16] was 92.8%, the viability, T/C [17] was 93% and the viability, T/C [18] was 114%. For the same compound, the viability, T/C [19] was 86%, the viability, T/C [20] was 88.3% and the viability, T/C [21] was 94.6%. The viability, T/C [22] was 109%, the viability, T/C [23] was 86.2% and the viability, T/C [24] was 89.6%. The viability, T/C [25] was 78%, the viability, T/C [26] was 73% and the viability, T/C [27] was 66.8%. For the same compound, the viability, T/C [28] was 65.7%, the viability, T/C [29] was 75.5% and the viability, T/C [30] was 79.3%. It also gave a viability, T/C [31] of 47%, a viability, T/C [32] of 56.4% and a viability, T/C [33] of 66.4%. The viability, T/C [34] was 43.6%, the viability, T/C [35] was 36.8% and the viability, T/C [36] was 35%.
For `Cn1ncnc1[C@H]1c2n[nH]c(=O)c3cc(F)cc(c23)N[C@@H]1c1ccc(F)cc1` + Cc1[nH]c2ccc(F)cc2c1-c1nc2c3cccnc3c3ncccc3c2[nH]1, the IC50 (second compound 0.0316 µM) was > 0.316 µM, the IC50 (second compound 0.1 µM) was > 0.316 µM and the IC50 (second compound 0.316 µM) was > 0.316 µM. The IC50 (second compound 1 µM) was > 0.316 µM, the IC50 (second compound 3.16 µM) was > 0.316 µM and the IC50 (second compound 10 µM) was > 0.316 µM. The viability, T/C (second compound 0.0316 µM, first compound 0.000999 µM) was 95.8%, the viability, T/C (second compound 0.0316 µM, first compound 0.00316 µM) was 80.1% and the viability, T/C (second compound 0.0316 µM, first compound 0.00999 µM) was 96.7%. It also gave a viability, T/C [1] of 88.1%, a viability, T/C (second compound 0.0316 µM, first compound 0.0999 µM) of 109% and a viability, T/C [3] of 90.2%. The viability, T/C (second compound 0.1 µM, first compound 0.000999 µM) was 91.8%, the viability, T/C (second compound 0.1 µM, first compound 0.00316 µM) was 87.3% and the viability, T/C (second compound 0.1 µM, first compound 0.00999 µM) was 101%. For the same compound, the viability, T/C [7] was 85.3%, the viability, T/C (second compound 0.1 µM, first compound 0.0999 µM) was 93.2% and the viability, T/C [9] was 97.9%. For the same compound, the viability, T/C (second compound 0.316 µM, first compound 0.000999 µM) was 95.1%, the viability, T/C (second compound 0.316 µM, first compound 0.00316 µM) was 104% and the viability, T/C (second compound 0.316 µM, first compound 0.00999 µM) was 81.1%. For the same compound, the viability, T/C [13] was 110%, the viability, T/C (second compound 0.316 µM, first compound 0.0999 µM) was 90.5% and the viability, T/C [15] was 106%. For the same compound, the viability, T/C (second compound 1 µM, first compound 0.000999 µM) was 79.3%, the viability, T/C (second compound 1 µM, first compound 0.00316 µM) was 87.7% and the viability, T/C (second compound 1 µM, first compound 0.00999 µM) was 80.7%. For the same compound, the viability, T/C [19] was 89.2%, the viability, T/C (second compound 1 µM, first compound 0.0999 µM) was 111% and the viability, T/C [21] was 86%. For the same compound, the viability, T/C (second compound 3.16 µM, first compound 0.000999 µM) was 67.7%, the viability, T/C (second compound 3.16 µM, first compound 0.00316 µM) was 65.8% and the viability, T/C (second compound 3.16 µM, first compound 0.00999 µM) was 71.8%. For the same compound, the viability, T/C [25] was 66.4%, the viability, T/C (second compound 3.16 µM, first compound 0.0999 µM) was 86.8% and the viability, T/C [27] was 70.3%. For the same compound, the viability, T/C (second compound 10 µM, first compound 0.000999 µM) was 48.9%, the viability, T/C (second compound 10 µM, first compound 0.00316 µM) was 51.7% and the viability, T/C (second compound 10 µM, first compound 0.00999 µM) was 57.2%. The viability, T/C [31] was 45%, the viability, T/C (second compound 10 µM, first compound 0.0999 µM) was 41.1% and the viability, T/C [33] was 57.4%.
In the case of `O=C(c1cc(Cc2n[nH]c(=O)c3ccccc23)ccc1F)N1CCN(C(=O)C2CC2)CC1` + Cc1[nH]c2ccc(F)cc2c1-c1nc2c3cccnc3c3ncccc3c2[nH]1, the IC50 (second compound 0.0316 µM) is reported as > 10 µM, the IC50 (second compound 0.1 µM) is reported as > 10 µM and the IC50 (second compound 0.316 µM) is reported as > 10 µM. For the same compound, the IC50 (second compound 1 µM) was > 10 µM, the IC50 (second compound 3.16 µM) was > 10 µM and the IC50 (second compound 10 µM) was 1.55 µM. The viability, T/C [1] was 134%, the viability, T/C [2] was 107% and the viability, T/C [3] was 102%. It also gave a viability, T/C [4] of 122%, a viability, T/C [5] of 110% and a viability, T/C [6] of 92%. It also gave a viability, T/C [7] of 87.8%, a viability, T/C [8] of 98.6% and a viability, T/C [9] of 99.2%. It also gave a viability, T/C [10] of 99.6%, a viability, T/C [11] of 105% and a viability, T/C [12] of 89%. For the same compound, the viability, T/C [13] was 92.8%, the viability, T/C [14] was 115% and the viability, T/C [15] was 101%. For the same compound, the viability, T/C [16] was 107%, the viability, T/C [17] was 97.1% and the viability, T/C [18] was 97%. The viability, T/C [19] was 101%, the viability, T/C [20] was 111% and the viability, T/C [21] was 122%. For the same compound, the viability, T/C [22] was 111%, the viability, T/C [23] was 110% and the viability, T/C [24] was 114%. It also gave a viability, T/C [25] of 75.4%, a viability, T/C [26] of 76.7% and a viability, T/C [27] of 93%. For the same compound, the viability, T/C [28] was 79.1%, the viability, T/C [29] was 69.8% and the viability, T/C [30] was 54.7%. It also gave a viability, T/C [31] of 58.2%, a viability, T/C [32] of 40.2% and a viability, T/C [33] of 71.9%. It also gave a viability, T/C [34] of 57.9%, a viability, T/C [35] of 38.4% and a viability, T/C [36] of 25.8%.

From PubChem BioAssay AID2060501 (Molecular Pharmacology Branch, DTP, NCI, 2025)
